From patent US12642803B2, “Pharmaceutical aqueous formulation comprising 1-(4-{[4-(dimethylamino)piperidin-1-yl]carbonyl}phenyl)-3-[4-(4,6-dimorpholin-4-yl-1,3,5-triazin-2-yl)phenyljurea” (PFIZER INC., priority 2017, dated 2026)

Experiments:
[1] = only with lactic acid and orthophosphoric acid, of ten acids tested; WO2016/097949; cited from earlier work
[2] = Visual analysis (European Pharmacopoeia Method 2.9.20) and OPM analysis for crystallites or particles (clear solution); assay type: physicochemical; conditions: for Solution concentration at which the necessary clear solutions are not obtained, or are not obtained consistently: pH required for intravenous administration
Description: A “clear solution” is defined herein as a visually clear solution, which may bear a solution opalescence, that is essentially free from any visible particulates that can be observed on a visual inspection. Generally, if any particulate matter is observed, the formulation is not suitable for intravenous administration and should not be utilised as occlusion of blood vessels may occur. Accordingly, in view of the qualitative nature of the visual test, the term “essentially free from any visible particulates” is usually applied when no visible particulate matter is observed.
The visual inspection can be conducted in accordance with the method defined in European Pharmacopoeia Method 2.9.20 entitled “Particulate contamination: visible particles”. This method determines particulate contamination of injections and infusions by extraneous, mobile, undissolved particles, other than gas bubbles, that may be present in the solutions. […]
A sample of the formulation was analysed in accordance with the visual method defined in European Pharmacopoeia Method 2.9.20 (using a Verivide (trade mark) light cabinet and a light meter reading of 3250 lux against a matt black panel and a white panel) to determine if crystallites or particles were present. […]
A sample of the formulation was placed on a clean glass microscopy slide and covered with a glass cover slip. It was then analysed by OPM using both non-polarised and cross-polarised light under a Nikon LV 100POL (trade mark) microscope with a 10× magnification lens and a 10× magnification eyepiece to determine if crystallites or particles were present. The image was recorded using a DFK 23UP031 TIS USB 3.0 CMOS (trade mark) Colour Industrial Camera 5MP 1/2,5″ and image capture software. […]
These Examples were analysed by the visual method defined in European Pharmacopoeia Method 2.9.20 and the OPM method both as described in Example 1.
The Examples shown in the following Table were analysed by the visual method defined in European Pharmacopoeia Method 2.9.20 and the OPM method both as described in Example 1. […]

[3] = Water solubility of the free base; assay type: physicochemical; conditions: for an aqueous solution formulation for intravenous or parenteral administration at the therapeutic dosage levels required
Experimental: (§1) 1-(4-{[4-(Dimethylamino)piperidin-1-yl]carbonyl}phenyl)-3-[4-(4,6-dimorpholin-4-yl-1,3,5-triazin-2-yl)phenyl]urea may be prepared in crystalline form and is chemically and physically stable at 25° C. and 60% Relative Humidity (RH) for up to 3 years in this form.

[4] = Chemical and physical storage stability of the crystalline free base; assay type: physicochemical; conditions: crystalline form, 25° C. and 60% Relative Humidity (RH)
Experimental: as §1

Solution concentration at which the necessary clear solutions are not obtained, or are not obtained consistently ([2]; formulations comprising ethanesulphonic acid): ≥ 35 mg/mL
Solution concentration at which the necessary clear solutions are not obtained, or are not obtained consistently ([2]; formulations comprising methanesulphonic acid): ≥ 35 mg/mL
Solution concentration achieved as clear, essentially particle-free solution ([2]; use of methanesulphonic acid and ethanesulphonic acid, free base concentration): up to 30 mg/ml
Water solubility [3]: insufficiently water soluble
Time for which chemically and physically stable [4]: up to 3 years
SMILES: CN(C)C1CCN(C(=O)c2ccc(NC(=O)Nc3ccc(-c4nc(N5CCOCC5)nc(N5CCOCC5)n4)cc3)cc2)CC1 [1-(4-{[4-(Dimethylamino)piperidin-1-yl]carbonyl}phenyl)-3-[4-(4,6-dimorpholin-4-yl-1,3,5-triazin-2-yl)phenyl]urea]
Concentration achieved as a clear solution [1]: ≥ 3000 µg/mL
